As a reminder, the IC50 is the concentration that inhibits the measured activity by half.

Assay [1] deals with ROCK1 (Homo sapiens, UniProt Q13464). Nature of the assay: ROCK1 inhibition assay (ROCK1 binding activity, as determined by the assay described for ROCK2). The format is biochemical. As to conditions: read-out: ROCK 1 (IC50 category). In short, it runs like this:
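Run under the conditions used for ROCK2: 1 h compound–kinase preincubation, then 1 h reaction with 100 μM long S6 peptide and 20 μM ATP in 50 mM HEPES pH 7.5, 1% DMSO. ADP quantified by ADP-Glo luminescence; IC50 from four-parameter logistic fit, reported in potency categories.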

Assay [2] addresses T1, ROCK2 (Homo sapiens, UniProt O75116).
T1 construct: N-terminal 6His-tagged ROCK2 catalytic domain 11-552; 6His (N); purchased Dundee University, UK; host or cells: baculovirus expression system
Nature of the assay: ROCK2 inhibition assay (ADP-Glo kinase assay, called ROCK2 binding activity). The following applies: 20 μM ATP, 1 hour pre-incubation, read-out: ROCK 2 (IC50 category). In kind it is biochemical. In short, it runs like this:
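N-terminal 6His ROCK2 catalytic domain (11-552, baculovirus-expressed; 1.25 nM) was pre-incubated with compound for 1 h (1% DMSO, HEPES pH 7.5). Reaction then ran 1 h with 100 μM long S6 peptide and 20 μM ATP. ADP was quantified by ADP-Glo luminescence, and IC50 was derived from a four-parameter logistic fit and reported in potency bins.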
A general note: In ADP-Glo the light output rises with the ADP produced.

Sequence of ROCK1 (Q13464 whole entry): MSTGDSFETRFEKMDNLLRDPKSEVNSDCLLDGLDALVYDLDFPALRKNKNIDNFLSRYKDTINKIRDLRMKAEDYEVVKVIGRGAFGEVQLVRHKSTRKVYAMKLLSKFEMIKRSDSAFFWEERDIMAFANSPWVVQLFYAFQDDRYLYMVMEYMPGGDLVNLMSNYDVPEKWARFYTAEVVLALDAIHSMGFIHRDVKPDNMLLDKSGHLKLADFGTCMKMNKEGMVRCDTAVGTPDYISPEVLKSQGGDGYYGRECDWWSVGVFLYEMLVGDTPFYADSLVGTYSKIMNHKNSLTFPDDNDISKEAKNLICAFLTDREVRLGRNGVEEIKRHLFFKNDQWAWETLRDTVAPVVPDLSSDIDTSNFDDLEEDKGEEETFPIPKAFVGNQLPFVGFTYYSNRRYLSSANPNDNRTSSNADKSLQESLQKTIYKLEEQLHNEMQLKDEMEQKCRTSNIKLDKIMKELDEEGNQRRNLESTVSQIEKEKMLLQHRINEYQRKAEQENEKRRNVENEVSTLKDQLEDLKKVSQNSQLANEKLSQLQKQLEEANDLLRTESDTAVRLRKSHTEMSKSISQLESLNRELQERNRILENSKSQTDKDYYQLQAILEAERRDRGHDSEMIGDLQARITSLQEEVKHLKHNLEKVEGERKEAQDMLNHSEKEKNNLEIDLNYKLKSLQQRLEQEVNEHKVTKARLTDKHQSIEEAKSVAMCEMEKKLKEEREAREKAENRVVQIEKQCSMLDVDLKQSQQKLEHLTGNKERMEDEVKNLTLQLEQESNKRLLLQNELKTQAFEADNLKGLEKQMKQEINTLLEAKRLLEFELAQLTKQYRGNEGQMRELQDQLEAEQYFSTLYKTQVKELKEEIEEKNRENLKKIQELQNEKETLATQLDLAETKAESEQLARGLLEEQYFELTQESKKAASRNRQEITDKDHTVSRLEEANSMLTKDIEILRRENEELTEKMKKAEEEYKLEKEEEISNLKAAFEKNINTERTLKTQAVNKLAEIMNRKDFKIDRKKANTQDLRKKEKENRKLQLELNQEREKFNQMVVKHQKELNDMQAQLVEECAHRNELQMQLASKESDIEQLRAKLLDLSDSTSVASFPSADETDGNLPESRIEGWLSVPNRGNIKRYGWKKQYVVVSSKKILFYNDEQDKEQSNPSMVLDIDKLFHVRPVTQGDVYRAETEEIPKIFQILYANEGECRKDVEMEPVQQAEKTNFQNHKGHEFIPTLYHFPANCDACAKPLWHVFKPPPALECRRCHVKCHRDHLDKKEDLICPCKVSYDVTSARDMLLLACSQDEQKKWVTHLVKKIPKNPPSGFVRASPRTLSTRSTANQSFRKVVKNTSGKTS
T1 sequence (O75116 11-552): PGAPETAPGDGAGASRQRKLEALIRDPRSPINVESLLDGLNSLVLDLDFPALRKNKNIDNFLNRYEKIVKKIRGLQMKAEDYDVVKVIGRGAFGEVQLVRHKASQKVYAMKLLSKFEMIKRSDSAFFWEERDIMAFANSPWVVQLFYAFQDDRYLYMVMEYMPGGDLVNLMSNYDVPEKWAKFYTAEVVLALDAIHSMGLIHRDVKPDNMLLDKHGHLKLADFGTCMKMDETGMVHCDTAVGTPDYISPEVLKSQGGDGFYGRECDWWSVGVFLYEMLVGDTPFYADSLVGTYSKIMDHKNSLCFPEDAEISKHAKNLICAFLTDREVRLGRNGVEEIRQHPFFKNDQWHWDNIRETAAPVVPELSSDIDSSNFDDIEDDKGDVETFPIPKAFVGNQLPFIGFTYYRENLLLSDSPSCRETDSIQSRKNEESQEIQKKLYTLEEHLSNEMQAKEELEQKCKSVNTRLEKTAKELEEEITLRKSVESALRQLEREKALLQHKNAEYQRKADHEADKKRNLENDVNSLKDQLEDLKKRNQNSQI

As for `CCn1nc(-c2ccc(-c3ccc(C)nc3)cc2)nc1Nc1ccc2c(c1)CN(C)C2=O` [Example 35], the IC50 in assay [1] was greater than 10 µM; in assay [2], 3 to 10 µM.
As to `CCn1nc(-c2ccc(-n3cnc(C4CC4)c3)c(C)c2)nc1Nc1ccc2c(c1)C(C)NC2=O` (centres unmarked) [Example 76], the IC50 was 3 to 10 µM in assay [1] and less than 0.3 µM in assay [2].
Regarding `CCn1nc(-c2ccc(-c3ccc(C4CC4)nc3)cc2C)nc1Nc1ccc2c(c1)C(C)NC2=O` (centres unmarked) [Example 50], the IC50 in assay [1] was greater than 10 µM; in assay [2], less than 0.3 µM.
As for `CCn1nc(-c2ccc(-c3ccc(C4CC4)nc3)cc2)nc1Nc1cc2c(cc1C)C(=O)NC2C` (centres unmarked) [Example 70], the IC50 in assay [1] was 3 to 10 µM; in assay [2] it was less than 0.3 µM.
On to `Cn1nc(-c2ccc(-c3ccc(C(F)(F)F)nc3)cc2)nc1Nc1ccc2c(c1)CNC2=O` [Example 10], for which the IC50 in assay [1] was greater than 10 µM; in assay [2], less than 0.3 µM.
As for `Cn1nc(-c2ccc(C(=O)NCC(F)(F)F)cc2)nc1Nc1ccc2c(c1)CNC2=O` [Example 6], the figures for the IC50 in assay [1] and in assay [2] were greater than 10 µM and less than 0.3 µM, respectively.
On to `CCn1nc(-c2ccc(-c3ccc(C)c(C)n3)c(C)c2)nc1Nc1cc2c(cc1C)C(=O)NC2C` (centres unmarked) [Example 100], for which the half-inhibitory concentration (IC50) in assay [1] was greater than 10 µM; in assay [2], less than 0.3 µM.
Regarding `CCc1cn(-c2ccc(-c3nc(Nc4ccc5c(c4)CNC5=O)n(C)n3)cc2)c(C)n1` [Example 2], the figures for the 50% inhibitory concentration (IC50) in assay [1] and in assay [2] were greater than 10 µM and less than 0.3 µM, respectively.
In the case of `CCn1nc(-c2ccc(-c3cc(C)c(C)cn3)c(C)c2)nc1Nc1cc2c(cc1C)C(=O)NC2C` (centres unmarked) [Example 91], the IC50 was 3 to 10 µM in assay [1] and less than 0.3 µM in assay [2].
The matching figures for `CCn1nc(-c2ccc(-c3ccc(C4CC4)nc3)c(F)c2)nc1Nc1cc2c(cc1C)C(=O)NC2C` (centres unmarked) [Example 62]: greater than 10 µM and less than 0.3 µM.
As for `CCn1nc(-c2ccc(C3CCN(C)CC3)cc2)nc1Nc1cc2c(cc1C)C(=O)NC2C` (centres unmarked) [Example 142], the 50% inhibitory concentration (IC50) in assay [1] and in assay [2] was greater than 10 µM in each case.
On to `CCn1nc(-c2ccc(-c3nc(C)ccc3C)c(C)c2)nc1Nc1cc2c(cc1C)C(=O)NC2C` (centres unmarked) [Example 107], for which the IC50 in assay [1] is greater than 10 µM; in assay [2], 3 to 10 µM.
Taken in the same sequence, the figures for `CCn1nc(-c2ccc(-c3ccc(C)cn3)c(C)c2)nc1Nc1ccc2c(c1)CNC2=O` [Example 44] were greater than 10 µM and less than 0.3 µM.
Take `CCn1nc(-c2ccc(-c3ccc(C)nc3)c(OC)c2)nc1Nc1ccc2c(c1)CNC2=O` [Example 36]: the IC50 in assay [1] and in assay [2] was less than 0.3 µM each time.
For `CCn1nc(-c2ccc(-c3ccc(C)nc3)cc2F)nc1Nc1cc2c(cc1C)C(=O)NC2C` (centres unmarked) [Example 132], the IC50 was 3 to 10 µM in assay [1] and less than 0.3 µM in assay [2].
Taken in the same sequence, the figures for `CCn1nc(-c2ccc(-n3cc(C4CC4)nc3C)cc2)nc1Nc1ccc2c(c1)C(C)NC2=O` (centres unmarked) [Example 22] were 3 to 10 µM and less than 0.3 µM.
Taken in the same sequence, the figures for `CCn1nc(-c2ccc(-c3cnc(C4CC4)n3C)cc2)nc1Nc1ccc2c(c1)C(C)NC2=O` (centres unmarked) [Example 64] were 3 to 10 µM and less than 0.3 µM.
For `CCn1nc(-c2ccc(-c3ccc(C)nc3)cc2C)nc1Nc1cc2c(cc1C)C(=O)NC2C` (centres unmarked) [Example 150], the IC50 in assay [1] is 3 to 10 µM; in assay [2] it was less than 0.3 µM.
On to `CCn1nc(-c2ccc(-n3cnc(C4CC4)c3)cc2C)nc1Nc1cc2c(cc1C)C(=O)N[C@@H]2C` [Example 158], for which the concentration for half-maximal inhibition (IC50) in assay [1] is 3 to 10 µM; in assay [2], less than 0.3 µM.
In the case of `CCn1nc(-c2ccc(-c3ccc(C)nc3)nc2)nc1Nc1ccc2c(c1)CNC2=O` [Example 39], the figures for the IC50 in assay [1] and in assay [2] were greater than 10 µM and less than 0.3 µM, respectively.
For the molecule `CCn1nc(-c2ccc(-c3ccc(C4CC4)nc3)c(F)c2)nc1Nc1cc2c(cc1F)C(=O)NC2C` (centres unmarked) [Example 85], the values for the half-inhibitory concentration (IC50) in assay [1] and in assay [2] were greater than 10 µM and less than 0.3 µM, respectively.
For `CCn1nc(-c2cc(C)c(-c3ccc(C4CC4)nc3)cc2F)nc1Nc1ccc2c(c1)C(C)NC2=O` (centres unmarked) [Example 106], the figures for the IC50 in assay [1] and in assay [2] were 3 to 10 µM and less than 0.3 µM, respectively.
For `CCn1nc(-c2ccc(-n3cnc(C4CC4)c3)c(C)c2)nc1Nc1cc2c(cc1C)C(=O)NC2C` (centres unmarked) [Example 59], the figures for the half-maximal inhibitory concentration (IC50) in assay [1] and in assay [2] were 3 to 10 µM and less than 0.3 µM, respectively.
Regarding `CCn1nc(-c2ccc(-c3cn(C)c(C4CC4)n3)c(F)c2)nc1Nc1ccc2c(c1)C(C)NC2=O` (centres unmarked) [Example 108], the IC50 in assay [1] was 3 to 10 µM; in assay [2], less than 0.3 µM.
Turning to `CCn1nc(-c2ccc(-c3ccc(C)cn3)cc2)nc1Nc1ccc2c(c1)CNC2=O` [Example 27], the IC50 in assay [1] was 3 to 10 µM; in assay [2], less than 0.3 µM.
For the molecule `CCn1nc(-c2ccc(-n3cnc(C4CC4)c3)c(F)c2)nc1Nc1ccc2c(c1)C(C)NC2=O` (centres unmarked) [Example 86], the figures for the IC50 in assay [1] and in assay [2] were 3 to 10 µM and less than 0.3 µM, respectively.
Taken in the same sequence, the figures for `CCn1nc(-c2ccc(-c3ccc(C)nc3)cc2C)nc1Nc1ccc2c(c1)C(C)NC2=O` (centres unmarked) [Example 63] were 3 to 10 µM and less than 0.3 µM.
For the molecule `CCn1nc(-c2ccc(-c3cc(C)cc(C)n3)c(C)c2)nc1Nc1cc2c(cc1C)C(=O)NC2C` (centres unmarked) [Example 101], the IC50 in assay [1] was 3 to 10 µM; in assay [2], less than 0.3 µM.
For the molecule `CCn1nc(-c2ccc(-n3cc(C4CC4)nc3C)cc2)nc1Nc1ccc2c(c1)C(C)(C)NC2=O` [Example 18], the 50% inhibitory concentration (IC50) in assay [1] is greater than 10 µM; in assay [2], 3 to 10 µM.
The matching figures for `CCn1nc(-c2ccc(C3=CCN(CC(F)(F)F)C3)c(C)c2)nc1Nc1cc2c(cc1C)C(=O)NC2C` (centres unmarked) [Example 118]: greater than 10 µM and less than 0.3 µM.
For `CCn1nc(-c2ccc(-c3ccc(C4CC4)nc3)nc2)nc1Nc1ccc2c(c1)C(C)NC2=O` (centres unmarked) [Example 60], the 50% inhibitory concentration (IC50) in assay [1] was greater than 10 µM; in assay [2], less than 0.3 µM.
Take `CCn1nc(-c2ccc(C3CCCN(CC(F)(F)F)C3)c(C)c2)nc1Nc1cc2c(cc1C)C(=O)NC2C` (centres unmarked) [Example 147]: the IC50 in assay [1] is greater than 10 µM; in assay [2], 0.3 to 3 µM.
Taken in the same sequence, the figures for `CCn1nc(-c2ccc(-c3ccc(C4CC4)nc3)cc2)nc1Nc1ccc2c(c1)C(C)NC2=O` (centres unmarked) [Example 47] were 3 to 10 µM and less than 0.3 µM.
As to `Cn1nc(-c2ccc(-n3cnc(C4CC4)c3)cc2)nc1Nc1ccc2c(c1)C(C)(C)NC2=O` [Example 16], the values for the half-maximal inhibitory concentration (IC50) in assay [1] and in assay [2] were greater than 10 µM and less than 0.3 µM, respectively.
Consider `CCn1nc(-c2cc(C)c(-c3ccc(C)cn3)cc2C)nc1Nc1ccc2c(c1)C(C)NC2=O` (centres unmarked) [Example 133], for which the IC50 in assay [1] is greater than 10 µM; in assay [2], less than 0.3 µM.
On to `CCn1nc(-c2ccc(-n3cnc(C4CC4)c3)cc2C)nc1Nc1cc2c(cc1C)C(=O)NC2C` (centres unmarked) [Example 126], for which the values for the concentration for half-maximal inhibition (IC50) in assay [1] and in assay [2] were 3 to 10 µM and less than 0.3 µM, respectively.
Taken in the same sequence, the figures for `CCn1nc(-c2ccc(-c3ccc(C)nc3)cc2)nc1Nc1ccc2c(c1)C1(CC1)NC2=O` [Example 69] were greater than 10 µM and less than 0.3 µM.
For `CCn1nc(-c2cc(C)c(-c3ccc(C4CC4)nc3)cc2C)nc1Nc1cc2c(cc1C)C(=O)NC2C` (centres unmarked) [Example 88], the results for the concentration for half-maximal inhibition (IC50) in assay [1] and in assay [2] were greater than 10 µM and less than 0.3 µM, respectively.
Turning to `CCn1nc(-c2ccc(-n3cnc(C4CC4)c3)cc2)nc1Nc1ccc2c(c1)C(C)(C)NC2=O` [Example 19], the IC50 in assay [1] is greater than 10 µM; in assay [2], less than 0.3 µM.
Consider `CCn1nc(-c2cc(C)c(-c3ccc(C4CC4)nc3)cc2F)nc1Nc1cc2c(cc1C)C(=O)NC2C` (centres unmarked) [Example 94], for which the half-maximal inhibitory concentration (IC50) in assay [1] was 3 to 10 µM; in assay [2] it was less than 0.3 µM.

(Values after patent US20250122173A1, “MODULATORS OF RHO-ASSOCIATED PROTEIN KINASE” (Redx Pharma Limited, priority 2022, published 2025).)
